Reference: patent US5843941A, “Ras farnesyl transferase inhibitors” (Genentech, Inc., priority 1994, dated 1998)

How the values were obtained:
[1] = system: Ras proteins in Met18b-2 cells; assay: Incorporation of [3H]mevalonate into immunoprecipitated Ras proteins in Met18b-2 cells; format: cell-based, Chinese hamster; conditions: FIG. 5
Procedure: In each experiment, aliquots of the Triton X-100 fraction (300 μg protein, prepared as described above) were incubated with 1 μg anti-Ras monoclonal antibody (Oncogene Sciences, Inc.) overnight at 4° C. on a rotating platform. Immune complexes were precipitated by addition of 25 μl Protein A-agarose suspension that had been pre-coated with goat anti-rat IgG (Oncogene Sciences, Inc.) according to the manufacturer's instructions. After a 30 min incubation at 4° C., the agarose beads were pelleted by centrifugation and washed 5 times with 1 ml each of wash solution (50 mM Tris-HCl, 50 mM NaCl, 0.5% (w/v) deoxycholate, 0.5% (v/v) Nonidet P-40, and 0.1% (w/v) SDS at pH 7.5). 75 μl of 1X SDS sample buffer was added and each sample heated for 5 min at 95° C. before electrophoresis as above.

[2] = system: H-ras(Val12)-transformed rat-1 fibroblasts (rat 2.2 cells); assay: Changes in morphology of H-ras-transformed cells; format: cell-based; conditions: 5 days; FIG. 6A/6B
Procedure: Compound 27A (denoted as BG269A in the figure) and compound 27B (denoted as BG269B in the figure) were added at 250 μM to test whether these compounds would induce reversion to a more normal phenotype as had been previously shown with microinjection of anti-Ras antibodies (see Feramisco, J. R. et al Nature 314, 639 (1985)). The H-ras transformed cells, denoted as rat 2.2 cells, were generated by transfection of rat-1 fibroblasts as described (see Seeburg, P. H., Colby, W. W., Capon, D. J., Goeddel, D. V., and Levinson, A. D. Nature 312,71 (1984)). Cells that overgrew the monolayer were extracted and plated onto agar to obtain a cell line displaying a fully transformed phenotype. Untransformed rat-1 fibroblasts and src-transformed rat-1 fibroblasts were also treated. The src-transformed cells were generated by co-transfection of rat-1 fibroblasts with pSV3.Neo.src, a vector containing the gene for src as well as the gene that confers G418 resistance, both under control of SV40 early promoters. G418-resistant cell clones that diplayed a transformed phenotype were used to generate the cell line. On day 0, cells were plated in monolayer culture at 3×10^3 cells per well (24-well plates) in 1 ml DMEM supplemented with 10% FCS, 100 U/ml penicillin, 10 μg/ml streptomycin, 2% DMSO, and 0.5 mM DTT with and without 200 μM inhibitor. On day 3, the cells were refed with the same medium. On day 5, the cells were photographed under contrast at a magnification of 100X. […] This change in morphology is remarkably similar to that seen following injection of anti-ras antibodies into ras-transformed cells (see Feramisco, J. R. et al Nature 314, 639 (1985)). Rat-1 fibroblasts transformed with the src oncogene also grew in a multilayered pattern (FIG. 6C), but this was not affected by compound 27A or compound 27B (FIG. 6D).

[3] = system: src-transformed rat-1 fibroblasts; assay: Changes in morphology of src-transformed cells; format: cell-based; conditions: FIG. 6C/6D
Procedure: (§1) Compound 27A (denoted as BG269A in the figure) and compound 27B (denoted as BG269B in the figure) were added at 250 μM to test whether these compounds would induce reversion to a more normal phenotype as had been previously shown with microinjection of anti-Ras antibodies (see Feramisco, J. R. et al Nature 314, 639 (1985)). The H-ras transformed cells, denoted as rat 2.2 cells, were generated by transfection of rat-1 fibroblasts as described (see Seeburg, P. H., Colby, W. W., Capon, D. J., Goeddel, D. V., and Levinson, A. D. Nature 312,71 (1984)). Cells that overgrew the monolayer were extracted and plated onto agar to obtain a cell line displaying a fully transformed phenotype. Untransformed rat-1 fibroblasts and src-transformed rat-1 fibroblasts were also treated. The src-transformed cells were generated by co-transfection of rat-1 fibroblasts with pSV3.Neo.src, a vector containing the gene for src as well as the gene that confers G418 resistance, both under control of SV40 early promoters. G418-resistant cell clones that diplayed a transformed phenotype were used to generate the cell line. On day 0, cells were plated in monolayer culture at 3×10^3 cells per well (24-well plates) in 1 ml DMEM supplemented with 10% FCS, 100 U/ml penicillin, 10 μg/ml streptomycin, 2% DMSO, and 0.5 mM DTT with and without 200 μM inhibitor. On day 3, the cells were refed with the same medium. […]

[4] = system: untransformed rat-1 fibroblasts; assay: Changes in morphology of untransformed cells; format: cell-based; conditions: FIG. 6E and F
Procedure: as §1

CSCC[C@H](NC(=O)CN1C(=O)C(N(C)C(=O)[C@@H](N)CS)N=C(c2ccccc2)c2ccccc21)C(=O)O (single isomer, unassigned) [27A]
effect of control molecules on [3H]mevalonate incorporation [1]: had no effect | effect on transformed phenotype (morphology) [2]: had no effect | effect on morphology of src-transformed cells [3]: not affected | effect on morphology of untransformed cells [4]: no apparent effect on the morphology of untransformed rat-1 fibroblasts
